Tests used:
Format in all cases: biochemical
PDE5A = PDE5A (Homo sapiens (Human), UniProt O76074); experiment: PDE isozyme selectivity, IMAP assay
Method: (§1) PDE activity was measured using the IMAP fluorescence polarization assay (Molecular Devices) in which binding of hydrolyzed cyclic nucleotide substrate to immobilized metal coordination complexes increases fluorescence polarization (FP). Tetramethylrhodamine (TAMRA)-cGMP and fluorescein-cAMP were used as substrates, each at final concentration of 50 nmol/L. The PDE assay was done according to the manufacturer's specifications using either whole cell lysates or recombinant enzymes. FP was measured at excitation, emission wavelengths of either 530,590 nm for TAMRA-cGMP or 485,530 nm for fluorescein-cAMP using a Synergy4 (Biotek) microplate reader.

PDE3B = PDE3B (Homo sapiens (Human), UniProt Q13370); experiment: PDE isozyme selectivity, IMAP assay
Method: as §1

recombinant human PDE5 = recombinant human PDE5 (Homo sapiens (Human), UniProt O76074); experiment: PDE5 inhibition, IMAP fluorescence polarization assay; details: recombinant human PDE5; IC50 determined if inhibition >50% at 50 μM screening dose; read-out: IC50 μM against PDE5
Method: Compounds according to the present disclosure were tested for their in vitro ability to inhibit recombinant human PDE5, COX1 and COX2 enzymes at screening doses of 50, 100 and 100 μM respectively.
as §1, with “enzymes.” for “enzymes. FP was measured at excitation, emission wavelengths of either 530,590 nm for TAMRA-cGMP or 485,530 nm for fluorescein-cAMP using a Synergy4 (Biotek) microplate reader.”

PDE3B, sequence (Q13370 whole entry, species assumed): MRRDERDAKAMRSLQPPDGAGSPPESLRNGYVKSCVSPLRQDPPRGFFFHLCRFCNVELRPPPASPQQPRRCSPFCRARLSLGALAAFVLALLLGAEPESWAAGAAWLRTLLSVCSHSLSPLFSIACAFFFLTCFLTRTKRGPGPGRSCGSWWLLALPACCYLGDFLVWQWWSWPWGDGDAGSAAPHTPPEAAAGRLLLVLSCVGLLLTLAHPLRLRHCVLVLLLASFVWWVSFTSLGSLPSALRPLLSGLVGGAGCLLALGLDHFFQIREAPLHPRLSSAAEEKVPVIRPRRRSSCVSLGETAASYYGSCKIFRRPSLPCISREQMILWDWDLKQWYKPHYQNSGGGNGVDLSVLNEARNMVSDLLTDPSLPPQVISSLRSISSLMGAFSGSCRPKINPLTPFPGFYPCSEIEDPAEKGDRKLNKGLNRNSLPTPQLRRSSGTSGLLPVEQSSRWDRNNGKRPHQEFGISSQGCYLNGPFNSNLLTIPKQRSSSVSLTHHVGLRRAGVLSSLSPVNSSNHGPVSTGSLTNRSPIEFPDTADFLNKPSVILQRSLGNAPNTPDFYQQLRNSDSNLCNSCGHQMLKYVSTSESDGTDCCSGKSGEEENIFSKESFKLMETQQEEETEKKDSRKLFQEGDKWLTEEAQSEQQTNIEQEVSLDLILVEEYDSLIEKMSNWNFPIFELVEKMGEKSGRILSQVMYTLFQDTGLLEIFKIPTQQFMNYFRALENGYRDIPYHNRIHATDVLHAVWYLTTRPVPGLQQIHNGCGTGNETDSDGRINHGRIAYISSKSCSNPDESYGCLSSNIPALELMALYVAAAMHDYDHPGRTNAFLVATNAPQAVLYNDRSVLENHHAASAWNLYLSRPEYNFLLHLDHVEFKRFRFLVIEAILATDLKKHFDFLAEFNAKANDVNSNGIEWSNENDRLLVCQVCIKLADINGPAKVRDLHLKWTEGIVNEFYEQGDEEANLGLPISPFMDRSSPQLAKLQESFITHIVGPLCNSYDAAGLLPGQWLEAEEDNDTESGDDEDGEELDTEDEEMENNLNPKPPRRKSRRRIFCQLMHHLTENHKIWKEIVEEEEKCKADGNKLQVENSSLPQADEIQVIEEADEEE

## CC(C)(C)C1=NN(c2ccc(C(=O)O)cc2)C(c2ccc(Cl)cc2Cl)C1 (centres unmarked) [Compound 12, 4-(3-(tert-Butyl)-5-(2,4-dichlorophenyl)-4,5-dihydro-1H-pyrazol-1-yl)benzoic acid]
PDE5A; PDE5A, substrate cGMP
  IC50: 3.7 µM
PDE5A; in words
  selectivity for PDE5 relative to other cGMP degrading PDE isozymes: selective inhibitor for PDE5
PDE3B; substrate cAMP
  IC50: > 50 µM
PDE3B; substrate cGMP
  IC50: > 50 µM
Recombinant human PDE5
  IC50: 3.7 µM

Source: patent US9388139B2, “Derivatives of celeboxib, use thereof and preparation thereof” (German University, priority 2011, dated 2016)
